# Reference: US20050192289A1, “Novel cinnamic amides” (Active Biotech AB, priority 2004, published 2005)
# Where a name gives a salt, the structure may show the parent alone.
# Key:
# [1] = target: T1, cloned human CCR1 Chemokine receptor (Homo sapiens, UniProt P32246); experiment: In vitro competitive affinity binding assay (displacement of 125I-MIP-1α); settings: displacement of 125I-MIP-1α from cloned human CCR1 expressed in CHO cells, coated on FlashPlate; 1 hour, ambient temperature
# T1 construct: purchased Perkin Elmer 6120525; host or cells: CHO cells
# T1 sequence (P32246 1-355): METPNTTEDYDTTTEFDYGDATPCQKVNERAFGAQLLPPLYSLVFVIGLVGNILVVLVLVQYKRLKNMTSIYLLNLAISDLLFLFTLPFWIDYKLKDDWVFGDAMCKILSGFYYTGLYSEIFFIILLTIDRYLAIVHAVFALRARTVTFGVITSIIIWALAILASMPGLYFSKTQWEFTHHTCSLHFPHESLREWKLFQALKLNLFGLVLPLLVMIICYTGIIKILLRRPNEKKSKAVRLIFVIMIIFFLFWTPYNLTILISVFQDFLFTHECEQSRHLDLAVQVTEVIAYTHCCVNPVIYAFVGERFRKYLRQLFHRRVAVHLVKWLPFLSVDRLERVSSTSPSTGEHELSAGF
# Description: In the competitive affinity binding assay, the binding affinity of the compounds for the CCR1 receptor can be determined by measuring their ability to displace ^125I-Mip-1α from the CCR1 receptor.
# In vitro Competitive Affinity Binding Assay
# • 1. Screen Ready™ Targets: cloned human CCR1 Chemokine receptor, expressed in CHO cells, coated on 96-well FlashPlate® (Perkin Elmer Cat #6120525) • 2. Ligand: ^125I-MIP-1α from Perkin Elmer (specific activity is 2200 Ci/mmol) was reconstituted to 25 μCi/L in H2O. • 3. Assay buffer: 50 mM HEPES, 1 mM CaCl2, 5 mM MgCl2, 0.2% BSA, pH 7.4. • 4. MIP-1α (Peprotech EC Ltd Cat # 300-08) • 5. The compounds of the invention were dissolved in DMSO. A serial dilution was made and ten concentrations of each compound were screened to generate a dose curve from which the IC50 value was determined. Assay Procedure:
# Membranes coated on the FlashPlate® were incubated with ^125I-MIP-1α in the presence and absence of different concentrations of compounds at ambient temperature for 1 hour. The radioactivity in each well was determined in a microplate scintillation counter, The non-specific binding was defined by binding in the presence of 1250-fold unlabeled MIP-1α. The assay was performed according to the manufacturer's instruction of Screen Ready™ Targets.
# [2] = target: T2, CCR1 receptor (Homo sapiens, UniProt P32246); experiment: In vitro Ca2+-flux assay on human monocytes (THP-1 cells stimulated with MIP-1α); format: cell-based; settings: block of MIP-1α mediated Ca2+ mobilisation in THP-1 cells; Fluo-4
# T2 construct: host or cells: THP-1
# T2 sequence (P32246 1-355): T1 sequence (P32246 1-355)
# Protocol: The binding of Mip-1α at the CCR1 receptor leads to an increase of intracellular calcium levels. The ability of the compounds of the invention to block this biologic response of the CCR1 receptor is determined in the Ca^2+-flux assay.
# In vitro Ca^2+-Flux Assay on Human Monocytes
# • 1. Cell Culture: • a) THP-1 (ATCC Cat# TIB202) • b) Tissue culture medium: RPMI 1640 with Ultraglutamine 1 supplemented with 10% (v/v) foetal calf serum. This medium is hereinafter referred to as “growth medium”. • 2. Assay buffer: HMSS (Hanks' balanced salts solution), 20 mM HEPES, 1 mM CaCl2, 1 mM MgCl2, 2.5 mM Probenecid, pH 7.4. • 3. Fluo-4AM (Molecular Probes Cat # F14201) • 4. Pluronic® F-127 (Molecular Probes Cat # P-6867) • 5. The compounds of the invention were dissolved in DMSO. A serial dilution was made and nine concentrations of each compound were screened to generate a dose curve from which the IC50 value was determined. • 6. MIP-1α (Peprotech EC Ltd Cat # 300-08) • 7. Victor^2 1420 (Perkin Elmer) • 8. Microlite™ ^2+ (Dynex Cat # 7572) Assay Procedure:
# THP-1 cells were grown in T-75 cm^2 flasks in growth medium at 37° C. in 5% CO2. The cells were harvested by centrifugation and resuspended in assay buffer. The cells were then loaded with 5 μM Fluo-4 and 0.02% pluronic acid (final concentrations) at 37° C. in 5% CO2 for 30 min. The excess dye was removed by washing with assay buffer. The cells were resuspended and 10^5 cells/well were added in a Microlite plate containing compounds and then incubated for 15 minutes at 37° C. in 5% CO2. The cells were then stimulated with MIP-1α and changes in intracellular free Ca^2+ concentration were measured with a Victor^2.
# [3] = In vivo bioavailability in the mouse (cassette dosing, i.v. or oral); settings: female mice (SJL/N Tac), nominal dose 1 mg/kg/compound; for half-life / clearance: mouse; for half-life: plasma half-life; for clearance: plasma; for F: oral bioavailability, F=(AUCinf,po/AUCinf,iv)·(Doseiv/Dosepo)
# Protocol: Female mice (SJL/N Tac) were given a single intravenous or oral dose of a mixture of 5 or 6 compounds per cassette (nominal dose: 1 mg/kg/compound) in a solution containing 0.5% N,N′-dimethylacetamide (DMA) and 15% sulfobutyl ether β-cyclodextrin (Captisol®). Blood samples were taken from one mouse per time point and dose group until 24 hour after respective administration. The dose formulations and plasma concentrations of each compound were determined by LC-MS/MS. The pharmacokinetic parameters were determined by non-compartmental analysis using WinNonlin Professional (version 4.0.1). The elimination rate constant, λ, was estimated by linear regression analysis of the terminal slope of the logarithmic plasma concentration-time curve. The area under the plasma concentration-time curve, AUC0-t, was calculated by using the linear/logarithmic trapezoidal rule. The AUCinf was calculated with the residual area estimated as Cz/λ. The calculated plasma concentration at the last time point, Cz, was obtained from the regression equation. The oral bioavailability (F) was calculated as: Foral=(AUCinf,po/AUCinf,iv)·Doseiv/Dosepo). Pharmacodynamic Assays
Compound,IC50 [1],IC50 [2],half-life [3],clearance [3],F [3]
"C[C@@H]1CN(Cc2ccc(F)cc2)C[C@H](C)N1C(=O)/C=C/c1ccc(Cl)cc1 [F, reference compound]",> 1000 nM,416 nM,–,–,–
"O=C(/C=C/c1ccc(Cl)cc1Cl)N1CCN(Cc2ccc(Cl)cc2)CC1 [Compound C, 1-(4-chlorobenzyl)-4-(2,4-dichlorocinnamoyl)-piperazine, reference compound]",–,120 nM,–,–,–
"O=C(/C=C/c1ccc(Cl)cc1)N1CCN(Cc2ccc(F)cc2)CC1 [B, 3-(4-chloro-phenyl)-1-[4-(4-fluoro-benzyl)-piperazine-1-yl]-prop-2-en-1-one, reference compound]",235 nM,63 nM,–,–,–
"C[C@@H]1CN(C(=O)/C=C/c2cc(Cl)c3nsnc3c2)[C@@H](C)CN1Cc1ccc(F)cc1 (racemic) [Compound 5.46, (E)-(trans)-3-(4-Chloro-benzo[2,1,3]thiadiazol-6-yl)-1-[4-(4-fluorobenzyl)-2,5-dimethyl-piperazine-1-yl]-prop-2-en-1-one]",–,7 nM,–,–,–
"C[C@@H]1CN(C(=O)/C=C/c2ccc(Cl)c([N+](=O)[O-])c2)[C@@H](C)CN1Cc1ccc(Cl)cc1 (racemic) [Compound 5.2, (E)-(trans)-3-(4-Chloro-3-nitro-phenyl)-1-[4-(4-chloro-benzyl)-2,5-dimethyl-piperazine-1-yl]-prop-2-en-1-one]",39 nM,6 nM,–,–,–
"COc1cc(/C=C/C(=O)N2C[C@@H](C)N(Cc3ccc(F)cc3)C[C@@H]2C)cc(OC)c1OC (racemic) [Compound 5.19, (E)-(trans)-1-[4-(4-Fluoro-benzyl)-2,5-dimethyl-piperazine-1-yl]-3-(3,4,5-trimethoxy-phenyl)-prop-2-en-1-one]",17 nM,8 nM,–,–,–
"C[C@@H]1CN(C(=O)/C=C/c2ccc(Cl)cc2Cl)[C@@H](C)CN1Cc1ccc(F)cc1 (racemic) [Compound 5.6, (E)-(trans)-3-(2,4-Dichloro-phenyl)-]-[4-(4-fluoro-benzyl)-2,5-dimethyl-piperazine-1-yl]-prop-2-en-1-one hydrochloride]",–,18 nM,–,–,–
"C[C@@H]1CN(C(=O)/C=C/c2ccc3nonc3c2)[C@@H](C)CN1Cc1ccc(F)cc1 (racemic) [Compound 5.13, (E)-(trans)-3-Benzo[2,1,3]oxadiazol-5-yl-1-[4-(4-fluoro-benzyl)-2,5-dimethyl-piperazine-1-yl]-prop-2-en-1-one]",43 nM,12 nM,138 min,58.3 mL/min/kg,29%
"O=C(/C=C\c1ccc(Cl)cc1)N1CCN(Cc2ccc(F)cc2)CC1 [Compound 8.2, (Z)-3-(4-Chloro-phenyl)-1-[4-(4-fluoro-benzyl)-piperazine-1-yl]-prop-2-en-1-one, reference compound]",> 1000 nM,> 1000 nM,–,–,–
"C[C@@H]1CN(C(=O)/C=C/c2ccc([N+](=O)[O-])cc2)[C@@H](C)CN1Cc1ccc(F)cc1 (racemic) [Compound 5.5, (E)-(trans)-1-[4-(4-Fluoro-benzyl)-2,5-dimethyl-piperazine-1-yl]-3-(4-nitro-phenyl)-prop-2-en-1-one]",33 nM,23 nM,–,–,–
"COc1cc(/C=C/C(=O)N2CCN(Cc3ccc(F)cc3)CC2)cc(OC)c1OC [Compound A, 1-[4-(4-Fluoro-benzyl)-piperazine-1-yl]-3-(3,4,5-trimethoxy-phenyl)-prop-2-en-1-one, reference compound]",565 nM,110 nM,–,–,–

# Results, then the molecule that gave them:
IC50 [1],IC50 [2],half-life [3],clearance [3],F [3],Compound
21 nM,4 nM,–,–,–,"C[C@@H]1CN(C(=O)/C=C/c2ccc(Cl)c([N+](=O)[O-])c2)[C@@H](C)CN1Cc1ccc(F)cc1 (racemic) [Compound 6.2, (E)-(trans)-3-(4-Chloro-3-nitro-phenyl)-1-[4-(4-fluoro-benzyl)-2,5-dimethyl-piperazne-1-yl]-prop-2-en-1-one]"
> 1000 nM,207 nM,–,–,–,"C[C@@H]1CN(C(=O)/C=C\c2ccc(Cl)cc2)[C@@H](C)CN1Cc1ccc(F)cc1 (racemic) [Compound 8.1, (Z)-(trans)-3-(4-Chloro-phenyl)-1-[4-(4-fluoro-benzyl)-2,5-dimethyl-piperazine-1-yl]-prop-2-en-1-one, reference compound]"
–,910 nM,–,–,–,"C[C@H]1CN(C(=O)/C=C/c2ccc(Cl)cc2)[C@@H](C)CN1Cc1ccc(F)cc1 (racemic) [Compound 9.1, (E)-(cis)-3-(4-Chloro-phenyl)-1-[4-(4-fluoro-benzyl)-2,5-dimethyl-piperazine-1-yl]-prop-2-en-1-one, reference compound]"
14 nM,9 nM,318 min,80 mL/min/kg,62%,"C[C@@H]1CN(C(=O)/C=C/c2ccc(Cl)cc2)[C@@H](C)CN1Cc1ccc(F)cc1 (racemic) [Compound 6.1, (E)-(trans)-3-(4-Chloro-phenyl)-1-[4-(4-fluoro-benzyl)-2,5-dimethyl-piperazine-1-yl]-prop-2-en-1-one]"
